For data set [1], the system named is RAW264.7. Nature of the data set: Cytotoxicity against mouse RAW264.7 cells at 50 uM after 24 hrs by MTT assay. The format is cell-based. The note with it: raw264.7, 24 h.
The subject of data set [2] is RAW264.7. Nature of the data set: Cytotoxicity against mouse RAW264.7 cells at 100 uM after 24 hrs by MTT assay. The format is cell-based. The note with it: raw264.7, 24 h.
In data set [3] the test system is HaCaT. As to the kind of experiment: Antiinflammatory activity against IFN-gamma-stimulated human HaCaT cells assessed as inhibition of chemokine MDC production at 50 to 100 uM after 18 hrs by ELISA. The format is functional, cell-based.
For data set [4], the system named is HaCaT. As to the kind of experiment: Cytotoxicity against human HaCaT cells at 50 to 100 uM after 24 hrs by MTT assay. The format is cell-based.

We go through 52 compounds from ChEMBL document CHEMBL1671795, “Evaluation of endogenous fatty acid amides and their synthetic analogues as potential anti-inflammatory leads” (Bioorg Med Chem, 2011).

Take `CCCCCCCC(=O)/C=C/CCCCCCCC(=O)NCCCl`: the Activity result in the data set on RAW264.7 [1] is “Toxic”; with RAW264.7 [2], “Toxic”; in the data set with HaCaT [3], “Non-toxic”; in the data set with HaCaT [4] it was “Toxic”.
Take `CCCCCCCC(=O)/C=C/CCCCCCCC(=O)NC(C)C`: the Activity entry is “Toxic” with RAW264.7 [1], “Toxic” in the data set with RAW264.7 [2], “Non-toxic” in the data set with HaCaT [3] and “Toxic” with HaCaT [4].
`CCCCCCCC/C=C/C(=O)CCCCCCC(=O)NCCCl`: the Activity result with RAW264.7 [1] was “Toxic”; with RAW264.7 [2], “Toxic”; in the data set on HaCaT [3], “Non-toxic”; in the data set with HaCaT [4], “Toxic”.
As to `CC/C=C\C/C=C\C/C=C\CCCCCCCC(=O)NC(C)C`, the Activity result in the data set with HaCaT [3] was “Non-toxic”; with HaCaT [4], “Toxic”.
As to `CCCCCCCC/C=C/C(=O)CCCCCCC(=O)NC(C)C`, the Activity entry with RAW264.7 [1] was “Toxic”; with RAW264.7 [2], “Toxic”; in the data set with HaCaT [3] it was “Non-toxic”; in the data set on HaCaT [4], “Toxic”.
Take `CCCCCCCC(=O)/C=C/CCCCCCCC(=O)NCC(O)CO` (racemic): the Activity entry with RAW264.7 [1] was “Toxic”; in the data set on RAW264.7 [2], “Toxic”; in the data set with HaCaT [3] it was “Non-toxic”; in the data set with HaCaT [4] it was “Toxic”.
Turning to `CCCCCCC/C=C/C(=O)CCCCCCCC(=O)NCCc1c[nH]c2ccc(O)cc12`, the Activity result with RAW264.7 [1] is “Toxic”; in the data set with RAW264.7 [2], “Toxic”; in the data set with HaCaT [3], “Non-toxic”; in the data set with HaCaT [4] it was “Toxic”.
Take `CC/C=C\C/C=C\C/C=C\CCCCCCCC(=O)NCC(=O)O`: the Activity entry in the data set on HaCaT [3] is “Non-toxic”; with HaCaT [4], “Toxic”.
On the same counts, the results for `CCCCCCCC/C=C\CCCCCCCCCCCC(=O)NCCCl` are “Non-toxic” and “Toxic”.
Consider `CCCCCCCC(=O)/C=C/CCCCCCCC(=O)NCCc1ccc(O)c(O)c1`, for which the Activity entry with RAW264.7 [1] is “Toxic”; in the data set with RAW264.7 [2], “Toxic”; with HaCaT [3], “Non-toxic”; in the data set on HaCaT [4], “Toxic”.
As to `CCCCCCCC(=O)/C=C/CCCCCCCC(=O)N[C@H](C)CO`, the Activity entry in the data set with RAW264.7 [1] is “Toxic”; with RAW264.7 [2], “Toxic”; with HaCaT [3], “Non-toxic”; with HaCaT [4] it was “Toxic”.
With `CCCCCCC/C=C/C(=O)CCCCCCCC(=O)NCCO`, the Activity result in the data set with RAW264.7 [1] is “Toxic”; with RAW264.7 [2], “Toxic”; in the data set with HaCaT [3] it was “Non-toxic”; in the data set on HaCaT [4] it was “Toxic”.
Regarding `CCCCCCCCCCCCCCCC(=O)N[C@H](C)CO`, the figures for the Activity entry in the data set with HaCaT [3] and in the data set with HaCaT [4] were “Non-toxic” and “Toxic”, respectively.
On to `CCCCCCCC(=O)/C=C/CCCCCCCC(=O)NCCc1c[nH]c2ccc(O)cc12`, for which the Activity entry in the data set on RAW264.7 [1] was “Toxic”; in the data set on RAW264.7 [2] it was “Toxic”; in the data set on HaCaT [3], “Non-toxic”; with HaCaT [4], “Toxic”.
As for `CCCCCCCC(=O)/C=C/CCCCCCCC(=O)NCCO`, the Activity entry with RAW264.7 [1] is “Toxic”; with RAW264.7 [2], “Toxic”; in the data set with HaCaT [3] it was “Non-toxic”; with HaCaT [4] it was “Toxic”.
Consider `CC/C=C\C/C=C\C/C=C\CCCCCCCC(=O)NCCCl`, for which the Activity entry was “Non-toxic” in the data set with HaCaT [3] and “Toxic” in the data set with HaCaT [4].
Take `CCCCCCC/C=C/C(=O)CCCCCCCC(=O)N[C@H](C)CO`: the Activity result with RAW264.7 [1] was “Toxic”; in the data set with RAW264.7 [2], “Toxic”; in the data set on HaCaT [3], “Non-toxic”; in the data set with HaCaT [4], “Toxic”.
As to `CC/C=C\C/C=C\C/C=C\CCCCCCCC(=O)O` [LINOLENIC ACID], the Activity result with HaCaT [3] was “Non-toxic”; with HaCaT [4], “Toxic”.
On the same counts, the results for `CCCCCCCCCCCCCCCC(=O)NCC(O)CO` (racemic) are “Non-toxic” and “Toxic”.
For `CCCCCCCC/C=C/C(=O)CCCCCCC(=O)NCCc1c[nH]c2ccc(O)cc12`, the Activity result in the data set with RAW264.7 [1] was “Toxic”; in the data set with RAW264.7 [2], “Toxic”; in the data set on HaCaT [3] it was “Non-toxic”; in the data set with HaCaT [4] it was “Toxic”.
Take `CCCCC/C=C\C/C=C\CCCCCCCC(=O)NCCO` [LINOLEOYLETHANOLAMIDE]: the Activity entry in the data set with HaCaT [3] is “Non-toxic”; in the data set on HaCaT [4] it was “Toxic”.
The matching figures for `CCCCCCCC/C=C\CCCCCCCCCCCC(=O)N[C@H](C)CO`: “Non-toxic” and “Toxic”.
With `CCCCCCCC/C=C\CCCCCCCC(=O)NCC(O)CO` (racemic), the figures for the Activity result in the data set with HaCaT [3] and with HaCaT [4] were “Non-toxic” and “Toxic”, respectively.
On the same counts, the results for `CCCCC/C=C\C/C=C\CCCCCCCC(=O)NC(C)C` are “Non-toxic” and “Toxic”.
On the same counts, the results for `CC/C=C\C/C=C\C/C=C\CCCCCCCC(=O)N[C@H](C)CO` are “Non-toxic” and “Toxic”.
For the compound `CCCCCCCC/C=C\CCCCCCCC(=O)N[C@H](C)CO`, the Activity result with HaCaT [3] was “Non-toxic”; in the data set on HaCaT [4], “Toxic”.
Take `CCCCCCCC/C=C/C(=O)CCCCCCC(=O)N[C@H](C)CO`: the Activity entry is “Toxic” in the data set with RAW264.7 [1], “Toxic” in the data set with RAW264.7 [2], “Non-toxic” in the data set with HaCaT [3] and “Toxic” in the data set with HaCaT [4].
Take `CCCCCCC/C=C/C(=O)CCCCCCCC(=O)NCCCl`: the Activity result was “Toxic” in the data set with RAW264.7 [1], “Toxic” in the data set on RAW264.7 [2], “Non-toxic” with HaCaT [3] and “Toxic” with HaCaT [4].
For the compound `CC/C=C\C/C=C\C/C=C\CCCCCCCC(=O)NCC(O)CO` (racemic), the Activity result with HaCaT [3] was “Non-toxic”; in the data set with HaCaT [4], “Toxic”.
Consider `CCCCC/C=C\C/C=C\CCCCCCCC(=O)N[C@H](C)CO`, for which the Activity result in the data set with HaCaT [3] was “Non-toxic”; with HaCaT [4], “Toxic”.
The matching figures for `CCCCCCCC/C=C\CCCCCCCCCCCC(=O)NCCO`: “Non-toxic” and “Toxic”.
On the same counts, the results for `CCCCCCCCCCCCCCCC(=O)NCCCl` are “Non-toxic” and “Toxic”.
For `CCCCCCC/C=C/C(=O)CCCCCCCC(=O)NCCc1ccc(O)c(O)c1`, the Activity entry with RAW264.7 [1] was “Toxic”; in the data set on RAW264.7 [2], “Toxic”; with HaCaT [3], “Non-toxic”; in the data set on HaCaT [4], “Toxic”.
Consider `CC/C=C\C/C=C\C/C=C\CCCCCCCC(=O)NCCO`, for which the Activity entry in the data set on HaCaT [3] is “Non-toxic”; in the data set with HaCaT [4], “Toxic”.
Take `CCCCCCCC/C=C\CCCCCCCCCCCC(=O)NCC(O)CO` (racemic): the results for the Activity entry with HaCaT [3] and in the data set on HaCaT [4] were “Non-toxic” and “Toxic”, respectively.
The matching figures for `CCCCC/C=C\C/C=C\CCCCCCCC(=O)NCC(=O)O` [LINOLEOYL GLYCINE]: “Non-toxic” and “Toxic”.
For the compound `CCCCCCCC/C=C\CCCCCCCCCCCC(=O)NC(C)C`, the Activity result is “Non-toxic” with HaCaT [3] and “Toxic” in the data set on HaCaT [4].
On the same counts, the results for `CCCCCCCCCCCCCCCC(=O)NCCO` [PALMIDROL] are “Non-toxic” and “Toxic”.
On the same counts, the results for `CCCCC/C=C\C/C=C\CCCCCCCC(=O)NCC(O)CO` (racemic) are “Non-toxic” and “Toxic”.
In the case of `CCCCCCC/C=C/C(=O)CCCCCCCC(=O)NCC(O)CO` (racemic), the Activity result in the data set with RAW264.7 [1] is “Toxic”; in the data set on RAW264.7 [2] it was “Toxic”; in the data set on HaCaT [3], “Non-toxic”; in the data set with HaCaT [4], “Toxic”.
With `CCCCC/C=C\C/C=C\CCCCCCCC(=O)NCCCl`, the Activity entry with HaCaT [3] is “Non-toxic”; with HaCaT [4] it was “Toxic”.
On to `CCCCCCC/C=C/C(=O)CCCCCCCC(=O)NC(C)C`, for which the Activity entry with RAW264.7 [1] was “Toxic”; in the data set on RAW264.7 [2] it was “Toxic”; with HaCaT [3], “Non-toxic”; in the data set with HaCaT [4], “Toxic”.
On to `CCCCCCCC/C=C\CCCCCCCC(=O)NCCO` [OLEOYLETHANOLAMIDE], for which the Activity result with HaCaT [3] is “Non-toxic”; in the data set on HaCaT [4], “Toxic”.
The matching figures for `CCCCCCCC/C=C\CCCCCCCC(=O)NCCCl`: “Non-toxic” and “Toxic”.
With `CCCCCCCCCCCCCCCC(=O)NC(C)C` [HEXADECANOIC ACID ISOPROPYLAMIDE], the values for the Activity entry with HaCaT [3] and in the data set on HaCaT [4] were “Non-toxic” and “Toxic”, respectively.
For the compound `CCCCCCCC/C=C/C(=O)CCCCCCC(=O)NCCc1ccc(O)c(O)c1`, the Activity entry with RAW264.7 [1] was “Toxic”; with RAW264.7 [2], “Toxic”; with HaCaT [3], “Non-toxic”; in the data set with HaCaT [4], “Toxic”.
`CCCCCCCCCCCCCCCC(=O)NCC(=O)O` [PALMITOYL GLYCINE]: the Activity result with HaCaT [3] is “Non-toxic”; in the data set on HaCaT [4], “Toxic”.
Turning to `CCCCCCCC/C=C\CCCCCCCC(=O)NC(C)C`, the figures for the Activity result with HaCaT [3] and with HaCaT [4] were “Non-toxic” and “Toxic”, respectively.
The matching figures for `CC/C=C\C/C=C\C/C=C\CCCCCCCC(=O)NCCc1c[nH]c2ccc(O)cc12`: “Non-toxic” and “Toxic”.
As for `CCCCCCCC/C=C/C(=O)CCCCCCC(=O)NCCO`, the Activity result with RAW264.7 [1] is “Toxic”; in the data set on RAW264.7 [2], “Toxic”; with HaCaT [3] it was “Non-toxic”; in the data set with HaCaT [4], “Toxic”.
Turning to `CCCCCCCC/C=C\CCCCCCCC(=O)NCC(=O)O` [OLEOYL GLYCINE], the Activity result is “Non-toxic” in the data set on HaCaT [3] and “Toxic” with HaCaT [4].
`CCCCCCCC/C=C/C(=O)CCCCCCC(=O)NCC(O)CO` (racemic): the Activity result is “Toxic” in the data set on RAW264.7 [1], “Toxic” in the data set with RAW264.7 [2], “Non-toxic” with HaCaT [3] and “Toxic” with HaCaT [4].
